The text below walks through data of PMC9878661, “Syntheses, Structural Characterization, and Cytotoxicity Assessment of Novel Mn(II) and Zn(II) Complexes of Aroyl-Hydrazone Schiff Base Ligand” (ACS Omega, 2023).

The assay concerns the target T1, bovine serum albumin (BSA) (Bos taurus, UniProt P02769).
T1 construct: gene ALB
The assay is described as follows: UV-vis absorption titration of BSA at […] nm (double reciprocal plot). In kind it is binding. The note with it: read-out: UV-vis absorption titration of BSA at 280 nm (double reciprocal plot) (converted).

Molecules are shown by their SMILES.

T1 sequence (P02769 25-607): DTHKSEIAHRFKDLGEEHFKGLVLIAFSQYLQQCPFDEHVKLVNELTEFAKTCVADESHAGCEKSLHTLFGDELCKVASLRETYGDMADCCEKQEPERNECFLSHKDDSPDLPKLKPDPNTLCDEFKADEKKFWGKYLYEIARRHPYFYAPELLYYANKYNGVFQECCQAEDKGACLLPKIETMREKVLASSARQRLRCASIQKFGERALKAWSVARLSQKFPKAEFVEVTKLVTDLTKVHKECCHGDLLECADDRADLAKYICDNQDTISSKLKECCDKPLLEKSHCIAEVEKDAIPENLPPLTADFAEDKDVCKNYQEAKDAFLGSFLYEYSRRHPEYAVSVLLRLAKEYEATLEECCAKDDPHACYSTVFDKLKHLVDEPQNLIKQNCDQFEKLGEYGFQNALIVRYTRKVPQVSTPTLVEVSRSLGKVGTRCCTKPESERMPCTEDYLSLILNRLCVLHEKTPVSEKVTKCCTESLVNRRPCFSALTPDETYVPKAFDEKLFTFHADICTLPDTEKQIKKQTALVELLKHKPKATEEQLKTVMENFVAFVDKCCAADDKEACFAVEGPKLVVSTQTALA

With `O=C(NN=Cc1c[nH]c2ccccc12)c1ccncc1` [L1, N′-[(E)-3-Indol-3-ylmethylene] isonicotinohydrazide], the Kd was 261 µM.
